Data on 36 compounds can be found in US12624044B2, “SMARCA degraders and uses thereof” (Kymera Therapeutics, Inc., priority 2019, dated 2026).

The target of this assay is SMARCA2 (Homo sapiens, UniProt P51531). Briefly: MSD SMARCA2 degradation in NCI-H1299 cell line (24 h). Format: cell-based. More on the design: HC: NCI-H1299 cells treated with DMSO; host or cells: NCI-H1299. The settings on record: for DC50: NCI-H1299 cells, read-out: SMARCA2 MSD H1299 degradation 24 h: External Abs-DC50; for Dmax: NCI-H1299, NCI-H1299 cells. The method in brief: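 NCI-H1299 cells treated 24 h with a 3-fold, 9-point compound dilution series, then lysed in RIPA with protease inhibitor. SMARCA2 in lysate-coated MSD plates detected with rabbit anti-SMARCA2 (0.3 ug/ml) and SULFO-TAG secondary. Relative SMARCA2 level normalized between DMSO-treated H1299 cells and SMARCA2-negative A2780 cells; Dmax % binned A–D.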
Chain of SMARCA2 (P51531 whole entry): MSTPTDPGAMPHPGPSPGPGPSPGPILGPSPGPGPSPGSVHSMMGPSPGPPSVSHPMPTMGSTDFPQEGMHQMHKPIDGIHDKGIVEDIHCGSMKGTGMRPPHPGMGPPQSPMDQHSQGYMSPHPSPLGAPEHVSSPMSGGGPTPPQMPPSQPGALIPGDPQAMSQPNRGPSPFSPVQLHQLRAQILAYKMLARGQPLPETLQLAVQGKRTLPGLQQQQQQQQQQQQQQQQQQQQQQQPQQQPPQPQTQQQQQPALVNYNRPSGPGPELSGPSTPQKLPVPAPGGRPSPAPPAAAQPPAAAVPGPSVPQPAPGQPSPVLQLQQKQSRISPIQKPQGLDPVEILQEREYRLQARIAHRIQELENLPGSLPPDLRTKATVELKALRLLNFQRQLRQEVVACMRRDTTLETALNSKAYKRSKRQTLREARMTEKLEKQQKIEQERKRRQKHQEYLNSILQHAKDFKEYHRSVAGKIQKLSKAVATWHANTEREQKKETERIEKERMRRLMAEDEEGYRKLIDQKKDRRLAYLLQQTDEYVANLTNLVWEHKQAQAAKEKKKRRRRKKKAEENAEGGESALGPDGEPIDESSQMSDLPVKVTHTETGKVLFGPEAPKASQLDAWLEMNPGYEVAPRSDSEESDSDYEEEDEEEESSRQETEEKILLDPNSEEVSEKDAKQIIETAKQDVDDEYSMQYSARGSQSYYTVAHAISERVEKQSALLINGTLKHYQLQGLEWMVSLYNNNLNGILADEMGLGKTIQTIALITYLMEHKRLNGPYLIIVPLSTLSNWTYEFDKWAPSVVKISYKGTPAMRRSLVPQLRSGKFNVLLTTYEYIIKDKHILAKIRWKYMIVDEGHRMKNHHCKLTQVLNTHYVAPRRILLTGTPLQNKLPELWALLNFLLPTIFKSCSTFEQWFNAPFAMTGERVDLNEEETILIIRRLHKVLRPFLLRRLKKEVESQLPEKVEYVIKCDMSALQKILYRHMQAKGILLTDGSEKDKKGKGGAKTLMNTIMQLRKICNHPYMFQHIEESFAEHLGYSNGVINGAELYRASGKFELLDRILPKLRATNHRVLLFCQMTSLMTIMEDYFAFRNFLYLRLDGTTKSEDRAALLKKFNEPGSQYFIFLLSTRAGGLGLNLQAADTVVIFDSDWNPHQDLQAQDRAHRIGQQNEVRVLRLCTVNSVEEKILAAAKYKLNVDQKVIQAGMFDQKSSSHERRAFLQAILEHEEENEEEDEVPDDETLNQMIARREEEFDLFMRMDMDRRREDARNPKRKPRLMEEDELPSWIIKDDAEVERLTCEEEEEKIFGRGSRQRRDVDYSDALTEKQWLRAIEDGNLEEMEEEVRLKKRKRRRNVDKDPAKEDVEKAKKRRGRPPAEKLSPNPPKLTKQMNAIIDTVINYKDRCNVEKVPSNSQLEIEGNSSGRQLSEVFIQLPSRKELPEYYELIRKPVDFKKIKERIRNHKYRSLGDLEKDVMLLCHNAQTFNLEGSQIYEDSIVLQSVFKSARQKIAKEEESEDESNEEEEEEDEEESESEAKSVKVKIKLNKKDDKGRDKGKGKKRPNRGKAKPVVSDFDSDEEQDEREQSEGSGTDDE

Broadly, the DC50 is the concentration at which degradation of the target reaches its halfway point. For the compound `CC(c1ccc(C(=O)NCCOCCOCCOCCOCCOCCCc2ccc3c(c2)n(C)c(=O)n3C2CCC(=O)NC2=O)cc1)n1cc(-c2cc(-c3ccccc3O)nnc2N)cn1` (stereo not shown) [I-14], the DC50 was more than 1000 nM. For orientation: Dmax means the greatest extent of degradation seen. Regarding `Cn1c(=O)n(C2CCC(=O)NC2=O)c2cccc(CCCCCN3CCC(n4cc(-c5cc(-c6ccccc6O)nnc5N)cn4)CC3)c21` (stereo not shown) [I-175], the Dmax was more than 90% and the DC50 was less than 100 nM.

In the case of `O=C1CCC(N2C(=O)c3cccc(OCCCCc4cn(CCCc5cccc(N6C[C@H]7C[C@@H]6CN7/C=C/C(=O)c6ccccc6O)n5)nn4)c3C2=O)C(=O)N1` (stereo partly drawn) [I-71, 2-(2,6-dioxopiperidin-3-yl)-4-(4-(1-(3-(6-((1R,4R)-5-((E)-3-(2-hydroxyphenyl)-3-oxoprop-1-en-1-yl)-2,5-diazabicyclo[2.2.1]heptan-2-yl)pyridin-2-yl)propyl)-1H-1,2,3-triazol-4-yl)butoxy)isoindoline-1,3-dione], the greatest degradation seen (Dmax) is less than 50% and the DC50 is more than 1000 nM. `O=C(CCCCCCCCOc1ccc(N2C[C@H]3C[C@@H]2CN3/C=C/C(=O)c2ccccc2O)nc1)NCCOCCOCCOCCOCCNc1cccc2c1C(=O)N(C1CCC(=O)NC1=O)C2=O` (stereo partly shown) [I-2]: the DC50 is more than 1000 nM. On to `Cn1c(=O)n(C2CCC(=O)NC2=O)c2cccc(CCCNCc3cn(Cc4cccc(N5C[C@H]6C[C@@H]5CN6/C=C/C(=O)c5ccccc5O)n4)nn3)c21` (stereo partly shown) [I-28], for which the Dmax is less than 50% and the DC50 is more than 1000 nM. For the compound `Cn1c(=O)n(C2CCC(=O)NC2=O)c2ccc(CCCOCCOCCOCCN3CCN(Cc4ccc(-c5cc(-c6ccccc6O)nnc5N)cc4)CC3)cc21` (stereo not shown) [I-134], the greatest degradation seen (Dmax) lay in the range of 50 to 70% and the DC50 fell in the range of 100 to 500 nM.

With `Cn1c(=O)n(C2CCC(=O)NC2=O)c2ccc(CCCCCc3cn(Cc4cccc(N5C[C@H]6C[C@@H]5CN6/C=C/C(=O)c5ccccc5O)n4)nn3)cc21` (stereo partly shown) [I-45], the Dmax was less than 50% and the DC50 was more than 1000 nM. As to `O=C(CCCCCCCCOc1ccc(N2C[C@H]3C[C@@H]2CN3/C=C/C(=O)c2ccccc2O)nc1)NCCOCCOCCOCCNc1cccc2c1C(=O)N(C1CCC(=O)NC1=O)C2=O` (stereo partly shown) [I-1], the half-maximal degradation concentration (DC50) was more than 1000 nM.

`Cn1c(=O)n(C2CCC(=O)NC2=O)c2ccc(CCCCCN3CCC(n4cc(-c5cc(-c6ccccc6O)nnc5N)cn4)CC3)cc21` (stereo not shown) [I-183]: the maximal degradation (Dmax) is 70 to 90% and the DC50 is less than 100 nM. Consider `O=C1CCC(n2c(=O)n(CCCCCCc3cn(Cc4cccc(N5C[C@H]6C[C@@H]5CN6/C=C/C(=O)c5ccccc5O)n4)nn3)c3ccccc32)C(=O)N1` (stereo partly shown) [I-56], for which the greatest degradation seen (Dmax) is less than 50% and the DC50 was more than 1000 nM. In the case of `CN[C@@H](C)C(=O)N[C@H](C(=O)N1Cc2cc(OCCOCCOCCNC(=O)c3ccc(C(C)n4cc(-c5cc(-c6ccccc6O)nnc5N)cn4)cc3)ccc2C[C@H]1C(=O)N[C@@H]1CCCc2ccccc21)C(C)(C)C` (stereo partly shown) [I-209], the DC50 was more than 1000 nM. `Nc1nnc(-c2ccccc2O)cc1N1CCN(c2ccc(CNCCOCCOCCCc3ccc4c(c3)oc(=O)n4C3CCC(=O)NC3=O)cc2)CC1` (stereo not shown) [I-126]: the Dmax is more than 90% and the half-maximal degradation concentration (DC50) fell in the range of 100 to 500 nM.

In the case of `CN(CCCN1CCC(c2cccc3c2n(C)c(=O)n3C2CCC(=O)NC2=O)CC1)Cc1ccc(N2CCN(c3cc(-c4ccccc4O)nnc3N)CC2)cc1` (stereo not shown) [I-110], the Dmax was more than 90% and the half-maximal degradation concentration (DC50) lay within 100 to 500 nM. Turning to `Cn1c(=O)n(C2CCC(=O)NC2=O)c2cccc(CCCOCCN3CCN(Cc4ccc(-c5cc(-c6ccccc6O)nnc5N)cc4)CC3)c21` (stereo not shown) [I-106], the Dmax lay in the range of 50 to 70% and the 50% degradation concentration (DC50) lay in the range of 100 to 500 nM. `CN1C(=O)CCC(n2c(=O)n(C)c3cc(CCCOCCCCN4CCN(Cc5ccc(-c6cc(-c7ccccc7O)nnc6N)cc5)CC4)ccc32)C1=O` (stereo not shown) [I-160]: the maximal degradation (Dmax) is less than 50% and the 50% degradation concentration (DC50) was more than 1000 nM. With `O=C1CCC(N2C(=O)c3cccc(OCCc4cn(Cc5cccc(N6C[C@H]7C[C@@H]6CN7/C=C/C(=O)c6ccccc6O)n5)nn4)c3C2=O)C(=O)N1` (stereo partly shown) [I-35], the 50% degradation concentration (DC50) is more than 1000 nM. `CN1C(=O)CCC(n2c(=O)n(C)c3c(CCCOCCOCCNCc4ccc(N5CCN(c6cc(-c7ccccc7O)nnc6N)CC5)cc4)cccc32)C1=O` (stereo not shown) [I-113]: the Dmax was less than 50% and the half-maximal degradation concentration (DC50) is more than 1000 nM. Taken in the same sequence, the figures for `Cn1c(=O)n(C2CCC(=O)NC2=O)c2cccc(CCCN3CCC(Cn4cc(-c5cc(-c6ccccc6O)nnc5N)cn4)CC3)c21` (stereo not shown) [I-194] were more than 90% and less than 100 nM. For `CN(CCCc1cnc(N2C3CCC2CN(c2cc(-c4ccccc4O)nnc2N)C3)nc1)CCCc1ccc2c(c1)n(C)c(=O)n2C1CCC(=O)NC1=O` (stereo not shown) [I-161], the Dmax is more than 90% and the DC50 was less than 100 nM. Consider `Cn1c(=O)n(C2CCC(=O)NC2=O)c2ccc(CCCCCCCCOc3cccc(CN4CCN(c5cc(-c6ccccc6O)nnc5N)CC4)c3)cc21` (stereo not shown) [I-142], for which the Dmax is less than 50% and the DC50 was more than 1000 nM. On to `Cn1c(=O)n(C2CCC(=O)NC2=O)c2ccc(CCCN3CCC[C@@H](Cn4cc(-c5cc(-c6ccccc6O)nnc5N)cn4)C3)cc21` (stereo partly shown) [I-191], for which the maximal degradation (Dmax) was in the range of 50 to 70% and the half-maximal degradation concentration (DC50) lay within 100 to 500 nM. Consider `CN[C@@H](C)C(=O)N[C@H](C(=O)N1Cc2cc(OCCOCCOCCOCCNC(=O)CCCOc3cccc(N4C[C@H]5C[C@@H]4CN5/C=C/C(=O)c4ccccc4O)n3)ccc2C[C@H]1C(=O)N[C@@H]1CCCc2ccccc21)C(C)(C)C` [I-199], for which the half-maximal degradation concentration (DC50) was more than 1000 nM. Take `COc1cc(C(=O)NCCCCCCCNCc2ccc(N3CCN(c4cc(-c5ccccc5O)nnc4N)CC3)cc2)ccc1NC(=O)[C@@H]1N[C@@H](CC(C)(C)C)[C@](C#N)(c2ccc(Cl)cc2F)[C@H]1c1cccc(Cl)c1F` [I-236]: the Dmax was less than 50% and the DC50 is more than 1000 nM.

For the compound `Cc1ncsc1-c1ccc(CNC(=O)[C@@H]2C[C@@H](O)CN2C(=O)[C@@H](NC(=O)CN2CCC(c3cnc(N4C5CCC4CN(c4cc(-c6ccccc6O)nnc4N)C5)nc3)CC2)C(C)(C)C)cc1` [I-211, (2S,4R)-1-[(2S)-2-[[2-[4-[2-[3-[3-amino-6-(2-hydroxyphenyl)pyridazin-4-yl]-3,8-diazabicyclo[3.2.1]octan-8-yl]pyrimidin-5-yl]-1-piperidyl]acetyl]amino]-3,3-dimethyl-butanoyl]-4-hydroxy-N-[[4-(4-methylthiazol-5-yl)phenyl]methyl]pyrrolidine-2-carboxamide], the Dmax is more than 90% and the DC50 lay in the range of 100 to 500 nM. Regarding `CN(Cc1ccc(N2CCN(c3cc(-c4ccccc4O)nnc3N)CC2)cc1)CC1CCN(Cc2cccc3c2n(C)c(=O)n3C2CCC(=O)NC2=O)CC1` (stereo not shown) [I-132, 3-(4-((4-(((4-(4-(3-amino-6-(2-hydroxyphenyl)pyridazin-4-yl)piperazin-1-yl)benzyl)(methyl)amino)methyl)piperidin-1-yl)methyl)-3-methyl-2-oxo-2,3-dihydro-1H-benzo[d]imidazol-1-yl)piperidine-2,6-dione], the maximal degradation (Dmax) was more than 90% and the DC50 was less than 100 nM.

For `CN(CC[C@@H]1CN(CCCc2cccc3c2n(C)c(=O)n3C2CCC(=O)NC2=O)CCO1)Cc1ccc(N2CCN(c3cc(-c4ccccc4O)nnc3N)CC2)cc1` (stereo partly shown) [I-111], the greatest degradation seen (Dmax) is 70 to 90% and the DC50 fell in the range of 100 to 500 nM. Take `CN(CCCCOCCCCc1cccc2c1n(C)c(=O)n2C1CCC(=O)NC1=O)Cc1ccc(N2CCN(c3cc(-c4ccccc4O)nnc3N)CC2)cc1` (stereo not shown) [I-119]: the maximal degradation (Dmax) fell in the range of 70 to 90% and the half-maximal degradation concentration (DC50) lay within 100 to 500 nM. Consider `Cn1c(=O)n(C2CCC(=O)NC2=O)c2ccc(CCCOCCCCN3CCN(Cc4ccc(-c5cc(-c6ccccc6O)nnc5N)cc4)CC3)cc21` (stereo not shown) [I-138], for which the maximal degradation (Dmax) lay within 50 to 70% and the 50% degradation concentration (DC50) is less than 100 nM.

For `Cn1c(=O)n(C2CCC(=O)NC2=O)c2ccc(CCCCCCc3cn(Cc4cccc(N5C[C@H]6C[C@@H]5CN6/C=C/C(=O)c5ccccc5O)n4)nn3)cc21` (stereo partly drawn) [I-46, 3-(5-(6-(1-((6-((1R,4R)-5-((E)-3-(2-hydroxyphenyl)-3-oxoprop-1-en-1-yl)-2,5-diazabicyclo[2.2.1]heptan-2-yl)pyridin-2-yl)methyl)-1H-1,2,3-triazol-4-yl)hexyl)-3-methyl-2-oxo-2,3-dihydro-1H-benzo[d]imidazol-1-yl)piperidine-2,6-dione], the Dmax was in the range of 50 to 70% and the half-maximal degradation concentration (DC50) is more than 1000 nM. `Cn1c(=O)n(C2CCC(=O)NC2=O)c2cccc(C#CCCCCCc3cn(Cc4cccc(N5C[C@H]6C[C@@H]5CN6/C=C/C(=O)c5ccccc5O)n4)nn3)c21` (stereo partly shown) [I-67]: the greatest degradation seen (Dmax) was less than 50% and the DC50 is more than 1000 nM.

Consider `Cn1c(=O)n(C2CCC(=O)NC2=O)c2ccc(CNCCCCc3cn(Cc4cccc(N5C[C@H]6C[C@@H]5CN6/C=C/C(=O)c5ccccc5O)n4)nn3)cc21` (stereo partly shown) [I-75], for which the Dmax was less than 50% and the 50% degradation concentration (DC50) is more than 1000 nM. As for `CN[C@@H](C)C(=O)N[C@H](C(=O)N1Cc2cc(OCCOCCOCCOCCNC(=O)c3ccc(C(C)n4cc(-c5cc(-c6ccccc6O)nnc5N)cn4)cc3)ccc2C[C@H]1C(=O)N[C@@H]1CCCc2ccccc21)C(C)(C)C` (stereo partly shown) [I-208], the DC50 was more than 1000 nM. As to `Cn1c(=O)n(C2CCC(=O)NC2=O)c2cccc(CCCCCOc3ccc(CN4CCN(c5cc(-c6ccccc6O)nnc5N)CC4)cc3)c21` (stereo not shown) [I-92], the Dmax was 50 to 70% and the DC50 was in the range of 100 to 500 nM. Taken in the same sequence, the figures for `Cn1c(=O)n(C2CCC(=O)NC2=O)c2ccc(CCCCCCOc3cccc(CN4CCN(c5cc(-c6ccccc6O)nnc5N)CC4)c3)cc21` (stereo not shown) [I-103] were less than 50% and more than 1000 nM. Taken in the same sequence, the figures for `Cn1c(=O)n(C2CCC(=O)NC2=O)c2cccc(CCCCCN3CCCC(n4cc(-c5cc(-c6ccccc6O)nnc5N)cn4)C3)c21` (stereo not shown) [I-170] were 70 to 90% and less than 100 nM. As to `Cn1c(=O)n(C2CCC(=O)NC2=O)c2ccc(CCCOCCOCCOCCOCCNC(=O)CCCCCCCCOc3ccc(N4C[C@H]5C[C@@H]4CN5/C=C/C(=O)c4ccccc4O)nc3)cc21` (stereo partly shown) [I-5], the DC50 is more than 1000 nM.
